Species: Rattus norvegicus
Test: Effective concentration against cholesterol-lowering agent in OVX rats
Type: functional

C[C@H]1CCC[C@H](O)CCCCCc2cc(O)cc(O)c2C(=O)O1 [ZERANOL]
ED50: 0.2 mg/kg
